“Also recorded” adds a separate entry of the source. Like-named read-outs stand apart in the source and are kept apart here.
How the values were obtained:
α2AAR = target: T1, α2AAR (Homo sapiens, UniProt P08913); assay: BRET between Gαi1-Rluc and GFP10-Gγ2 in the presence of α2AAR (Gα/Gβγ interaction); assay type: cell-based
T1 construct: expressed in transfected cells; host or cells: HEK293T
T1 sequence (P08913 1-465): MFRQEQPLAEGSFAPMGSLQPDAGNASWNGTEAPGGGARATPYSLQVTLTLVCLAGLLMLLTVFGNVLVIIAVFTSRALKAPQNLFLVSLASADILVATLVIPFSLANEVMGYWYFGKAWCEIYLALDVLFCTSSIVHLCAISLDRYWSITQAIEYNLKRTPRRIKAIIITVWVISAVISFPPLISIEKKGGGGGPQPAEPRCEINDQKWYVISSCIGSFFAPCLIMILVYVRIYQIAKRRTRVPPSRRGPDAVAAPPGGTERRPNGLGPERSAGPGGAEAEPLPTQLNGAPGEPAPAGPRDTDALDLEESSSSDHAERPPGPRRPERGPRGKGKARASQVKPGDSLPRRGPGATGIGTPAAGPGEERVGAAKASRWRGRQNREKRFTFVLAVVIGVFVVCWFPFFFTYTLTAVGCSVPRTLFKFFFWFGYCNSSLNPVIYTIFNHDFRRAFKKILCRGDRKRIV
Method: (§1) Rluc-tagged receptors and G protein constructs were transiently co-transfected in HEK293T cells. […] For the experiment using α2AAR-Rluc (FIG. 4f), the G protein heterotrimer was complimented with the most specific Gαi2. Forty-eight hours post-transfection, cells were washed twice with PBS, detached with PBS-5 mM EDTA and resuspended in PBS-0.1% glucose at RT. Cells (50 μg of proteins per well) were then distributed in a 96-well microplate (white Optiplate, PerkinElmer) and incubated in the presence or absence of different ligands for 1 min except in the case of the kinetic studies where the times are indicated. DeepBlueC™ coelenterazine (PerkinElmer) was added at a final concentration of 5 μM, and readings (except for the kinetic studies; see below) were collected using a modified top-count apparatus (TopCount.NX™, Packard Bioscience) that allows the sequential integration of the signals detected in the 370-450 nm and 500-530 nm windows using filters with the appropriate band pass (Chroma). The BRET signal was determined by calculating the ratio of the light emitted by GFP10 (500-530 nm) over the light emitted by the Rluc (370-450 nm). The net BRET values were obtained by subtracting the BRET background signal detected when the Rluc-tagged construct was expressed alone from BRET signals detected in cells coexpressing both Rluc- and GFP10-tagged constructs. […] The expression level of each protein was determined by direct measurement of total fluorescence and luminescence on aliquots of the transfected cells. The GFP10 total fluorescence was measured using a FluoroCount (PerkinElmer) with an excitation filter at 400 nm, an emission at 510 nm, and the following parameters: gain 1; PMT 1100 V; time 1.0 s. After fluorescence measurement, the same cells were incubated for 8 min with Coelenterazine h (Molecular Probes) at a final concentration of 5 μM and the total luminescence of cells was measured using a LumiCount (PerkinElmer Life Sciences) with the following parameters: gain 1; PMT 900 V; time 0.5 s. […] To avoid variations in the BRET signal that could result from fluctuations in the relative expression levels of the energy donor and acceptor, transfection conditions were designed so as to maintain a constant GFP10/Rluc expression ratio in each experimental set.

[1] = target: T2, human α2A-adrenergic receptor (α2AAR) (Homo sapiens, UniProt P08913); assay: BRET between α2AAR and tagged G protein subunits (Gβ1, Gγ2, Gαi1-91Rluc, Gαi1-122Rluc) in living HEK293T cells; assay type: cell-based; details: for effect of pre-treatment on agonist-promoted changes in BRET between α2AAR and G protein subunits: pertussis toxin 16 h at 37° C., UK14,304, FIG. 21
T2 construct: expressed in transfected cells; host or cells: HEK293T (transient)
T2 sequence (P08913 1-465): T1 sequence (P08913 1-465)
Method: as §1
For kinetic analysis of receptor/Gαβγ interactions, DeepBlueC™ or Coelenterazine h luciferase substrate was added prior to the injection of the different ligands using the Mithras LB 940 apparatus (Berthold) and MicroWin2000 software. Readings were then collected at 0.05 or 0.1 sec intervals. Injection of the different ligands was included with in the kinetic program to allow a baseline recording followed by real-time recording of the BRET changes. The BRET signals were determined for each time by calculating the ratio of the light emitted by GFP over that emitted by the Rluc. To determine the half-time (t½) of Iso-induced BRET, data were represented as the difference between the Iso-induced BRET signals and the average of basal BRET signal (net agonist-promoted BRET signal). Curves were fitted using a non-linear regression and one phase exponential association fit equation (GraphPad Prism).
For agonist stimulations longer than 1 minute, cells were first treated with the ligand (agonist, antagonist, inverse agonist) and DeepBlueC™ coelenterazine added immediately before BRET readings in the modified TopCount.NXT™ apparatus. For these experiments, readings were taken directly in 96 well plates 72 hours post-transfection without detaching the cells.

[2] = target: T3, β2-adrenergic receptor (β2AR) (Homo sapiens, UniProt P07550); assay: BRET in membrane preparations from HEK293T cells co-expressing β2AR-Rluc and GFP10-Gβ1 or GFP10-Gγ2; assay type: biochemical; details: membranes
T3 construct: expressed in transfected cells; host or cells: HEK293T (transient, calcium phosphate)
Method: Treatments: Iso, 10 μM; Feno, 10 μM; ICI, 100 μM; GTPγS, 200 μM. […] Rluc-tagged receptors and G protein constructs were transiently co-transfected in HEK293T cells. […] Forty-eight hours post-transfection, cells were washed twice with PBS, detached with PBS-5 mM EDTA and resuspended in PBS-0.1% glucose at RT. […] DeepBlueCTM coelenterazine (PerkinElmer) was added at a final concentration of 5 μM, and readings (except for the kinetic studies; see below) were collected using a modified top-count apparatus (TopCount.NXTM, Packard Bioscience) that allows the sequential integration of the signals detected in the 370-450 nm and 500-530 nm windows using filters with the appropriate band pass (Chroma). […] The net BRET values were obtained by subtracting the BRET background signal detected when the Rluc-tagged construct was expressed alone from BRET signals detected in cells coexpressing both Rluc- and GFP10-tagged constructs. […] The expression level of each protein was determined by direct measurement of total fluorescence and luminescence on aliquots of the transfected cells. […] To avoid variations in the BRET signal that could result from fluctuations in the relative expression levels of the energy donor and acceptor, transfection conditions were designed so as to maintain a constant GFP10/Rluc expression ratio in each experimental set.

[3] = target: T3, β2-adrenergic receptor (β2AR); assay: BRET2 receptor/G protein interaction assay: β2AR-Rluc (or β2AR-GFP10) with tagged G protein subunits in living HEK293T cells; assay type: cell-based
Method: Rluc-tagged receptors and G protein constructs were transiently co-transfected in HEK293T cells. […] For the experiment using α2AAR-Rluc (FIG. 4f), the G protein heterotrimer was complimented with the most specific Gαi2. Forty-eight hours post-transfection, cells were washed twice with PBS, detached with PBS-5 mM EDTA and resuspended in PBS-0.1% glucose at RT. Cells (50 μg of proteins per well) were then distributed in a 96-well microplate (white Optiplate, PerkinElmer) and incubated in the presence or absence of different ligands for 1 min except in the case of the kinetic studies where the times are indicated. DeepBlueC™ coelenterazine (PerkinElmer) was added at a final concentration of 5 μM, and readings (except for the kinetic studies; see below) were collected using a modified top-count apparatus (TopCount.NX™, Packard Bioscience) that allows the sequential integration of the signals detected in the 370-450 nm and 500-530 nm windows using filters with the appropriate band pass (Chroma). The BRET signal was determined by calculating the ratio of the light emitted by GFP10 (500-530 nm) over the light emitted by the Rluc (370-450 nm). The net BRET values were obtained by subtracting the BRET background signal detected when the Rluc-tagged construct was expressed alone from BRET signals detected in cells coexpressing both Rluc- and GFP10-tagged constructs. […]

[4] = untagged α2AAR, ligands 10 μM, FIG. 27A, 27C

## COC(=O)[C@@H]1[C@H]2C[C@H]3c4[nH]c5ccccc5c4CCN3C[C@@H]2CC[C@@H]1O [yohimbine, Yohimbine]
α2AAR; [4]
  change in BRET, Gαi1-91Rluc / GFP10-Gγ2: no effect on the BRET signal
  change in BRET, Gαi1-122Rluc / GFP10-Gγ2: significant decrease in the BRET signal
[1]
  change in BRET2, Gαi1-91Rluc / α2AAR-GFP2: little or no effect
  change in BRET2, Gαi1-122Rluc / α2AAR-GFP2: promoted a decrease in the BRET
  change in BRET2, α2AAR-Rluc / GFP10-Gβ1: little or no effect
  change in BRET2, α2AAR-Rluc / GFP10-Gγ2: little or no effect
  modulation of BRET, Gαi1-Rluc / α2AAR-GFP10: unable to modulate the BRET signal

## COC1(C2=NCCN2)COc2ccccc2O1 (stereo not shown) [RX821002]
α2AAR; [4]
  change in BRET, Gαi1-91Rluc / GFP10-Gγ2: no effect on the BRET signal
  change in BRET, Gαi1-122Rluc / GFP10-Gγ2: significant decrease in the BRET signal
[1]; FIG. 25
  effect of pretreatment on UK14,304-promoted BRET increase, α2AAR / G protein pairs: completely blocked the UK14,304-promoted BRET increase
[1]; agonist UK14304, FIG. 3E
  effect of preincubation on agonist-stimulated BRET response, Gαi1-Rluc / α2AAR-GFP10: completely blocked the agonist-stimulated response
[1]; ligands 10 μM, FIG. 3E
  modulation of BRET, Gαi1-Rluc / α2AAR-GFP10: unable to modulate the BRET signal
[1]; ligands 10 μM, FIG. 20, 25
  change in BRET2, Gαi1-91Rluc / α2AAR-GFP2: little or no effect
  change in BRET2, Gαi1-122Rluc / α2AAR-GFP2: promoted a decrease in the BRET
  change in BRET2, α2AAR-Rluc / GFP10-Gβ1: little or no effect
  change in BRET2, α2AAR-Rluc / GFP10-Gγ2: little or no effect

## Clc1cccc(Cl)c1N=C1NCCN1 [clonidine, Clonidine]
α2AAR
  change in BRET, Gαi1-91Rluc / GFP10-Gγ2: decreased the BRET
  change in BRET, Gαi1-122Rluc / GFP10-Gγ2: decreased the BRET
[1]
  change in BRET2, Gαi1-91Rluc / α2AAR-GFP2: partial increase in BRET
  change in BRET2, α2AAR-Rluc / GFP10-Gβ1: partial increase in BRET
  change in BRET2, α2AAR-Rluc / GFP10-Gγ2: partial increase in BRET
  modulation of BRET, Gαi1-Rluc / α2AAR-GFP10: induced only a fraction of the full agonist modulation UK14304

## Nc1nc2c(ncn2[C@@H]2O[C@H](COP(=O)(O)OP(=O)(O)OP(O)(O)=S)[C@@H](O)[C@H]2O)c(=O)[nH]1 [GTPγS]
[2]; GTPγS 200 μM, 90 min at 25° C. pretreatment, Iso 10 μM
  effect on agonist-promoted BRET signal, β2AR-Rluc / GFP10-Gβ1 or GFP10-Gγ2: attenuated the agonist-promoted signal
[2]; GTPγS 200 μM, 90 min at 25° C. pretreatment
  effect on basal BRET in the absence of agonist, β2AR-Rluc / GFP10-Gβ1 or GFP10-Gγ2: reduced the basal BRET

## Cc1cccc([C@H](C)c2cnc[nH]2)c1C [dexmedetomidine, Dexmedetomidine]
α2AAR; [4]
  change in BRET, Gαi1-91Rluc / GFP10-Gγ2: decreased the BRET
  change in BRET, Gαi1-122Rluc / GFP10-Gγ2: decreased the BRET
[1]
  change in BRET2, Gαi1-91Rluc / α2AAR-GFP2: partial increase in BRET
  change in BRET2, Gαi1-122Rluc / α2AAR-GFP2: larger responses
  change in BRET2, α2AAR-Rluc / GFP10-Gβ1: partial increase in BRET
  change in BRET2, α2AAR-Rluc / GFP10-Gγ2: partial increase in BRET
  modulation of BRET, Gαi1-Rluc / α2AAR-GFP10: induced only a fraction of the full agonist modulation UK14304

## pertussis toxin
α2AAR; pertussis toxin 16 h at 37° C., FIG. 21
  effect of treatment on UK14,304-promoted BRET changes, Gαi1-91Rluc or Gαi1-122Rluc / GFP10-Gγ2: abolished
[1]
  effect of pre-treatment on agonist-promoted changes in BRET between α2AAR and G protein subunits: blocked
[1]; listed as PTX
  effect of pre-treatment on agonist-promoted changes in BRET between α2AAR and G protein subunits: greatly blunted agonist-promoted BRET changes

## CC(Cc1ccc(O)cc1)NCC(O)c1cc(O)cc(O)c1 (stereo not shown) [fenoterol]
[3]; Feno 10 μM, Iso 10 μM, FIG. 3C
  ligand-promoted BRET response, β2AR-Rluc / GFP10-Gβ1 or GFP10-Gγ2, compared with isoproterenol: promoted only a fraction of the response evoked by the full agonist isoproterenol

## Nc1nc2c(ncn2[C@@H]2O[C@H](COP(=O)(O)OP(=O)(O)OP(=O)(O)O)[C@@H](O)[C@H]2O)c(=O)[nH]1 [GTP, Guanosine triphosphate]
[2]; high GTP concentrations, 90 min at 25° C., Iso 10 μM, FIG. 9
  effect of GTP on basal and agonist-stimulated BRET, β2AR-Rluc / GFP-Gβ1 or GFP-Gγ2: GTP sensitive

## Brc1c(NC2=NCCN2)ccc2nccnc12 [UK14,304]
α2AAR
  change in BRET2, Gαi1-91Rluc / GFP10-Gγ2, measured concomitantly with BRET1 in the same cells: decrease in BRET^2
  change in BRET, Gαi1-91Rluc / GFP10-Gγ2: promoted a reduction of BRET; also recorded: decreased the BRET
  change in BRET, Gαi1-122Rluc / GFP10-Gγ2: promoted a reduction of BRET; also recorded: decreased the BRET
[1]
  change in BRET1, Gαi1-91Rluc / α2AAR-Venus, measured concomitantly with BRET2 in the same cells: increase in the BRET
  change in BRET2, Gαi1-91Rluc / α2AAR-GFP2: significantly increased the BRET
  change in BRET2, α2AAR-Rluc / GFP10-Gβ1: significantly increased the BRET
  change in BRET2, α2AAR-Rluc / GFP10-Gγ2: significantly increased the BRET
  loss (decrease) of BRET signal, α2AAR-Rluc / GFP10-Gγ2: 24%
  real-time BRET1 change, Gαi1-91Rluc / α2AAR-Venus: rapid increases in the BRET
  real-time BRET1 change, Rluc-Gγ2 / α2AAR-Venus: rapid increases in the BRET
  real-time BRET1 change, α2AAR-Venus / Gαi1-122Rluc: rapid decrease in BRET^1
  time BRET levels reached following agonist stimulation remained constant, α2AAR-Venus pairs: at least 12 seconds

## AVP: Vasopressin-selective agonist (V2R)
[3]; 10 μM AVP, specificity control, FIG. 7
  modulation of BRET signal, β2AR-Rluc / GFP-Gγ2 or GFP-Gβ1, in cells also expressing Myc-V2R: unable to modulate BRET signal

Source: US9029097B2, “Biosensors for monitoring receptor-mediated G-protein activation” (Universite de Montreal, priority 2005, dated 2015)
